Test results from patent publication US20250289848A1, “PEPTIDOMIMETIC INHIBITORS OF B-CATENIN/TCF PROTEIN-PROTEIN INTERACTION” (H. LEE MOFFITT CANCER CENTER AND RESEARCH INSTITUTE, INC., priority 2018, published 2025).
“Also recorded” adds a separate entry of the source.

Assays:
[1] = tested on: SW480 cells; test: MTS cell viability assay, SW480; assay type: cell-based; conditions: Homo sapiens, SW480, 72 h; read-out: MTs IC50 ± SD SW480
[2] = tested on: HCT116 cells; test: MTS cell viability assay, HCT116; assay type: cell-based; conditions: Homo sapiens, HCT-116, 72 h; read-out: MTs IC50 ± SD HCT116
[3] = tested on: MDA-MB-231 cells; test: MTS cell viability assay, MDA-MB-231; assay type: cell-based; conditions: Homo sapiens, MDA-MB-231, 72 h; read-out: MTs IC50 ± SD MDA-MB-231
[4] = tested on: MDA-MB-468 cells; test: MTS cell viability assay, MDA-MB-468; assay type: cell-based; conditions: Homo sapiens, MDA-MB-468, 72 h, read-out: MTs IC50 ± SD MDA-MB-468
[5] = tested on: BT-20 cells; test: MTS cell viability assay, BT-20; assay type: cell-based; conditions: Homo sapiens, BT-20, 72 h; read-out: MTs IC50 ± SD BT-20
[6] = tested on: A549 cells; test: MTS cell viability assay, A549; assay type: cell-based; conditions: Homo sapiens, A549, 72 h; read-out: MTs IC50 ± SD A549
[7] = tested on: TOPFlash luciferase reporter in β-catenin activated HEK293 cells; test: TOPFlash luciferase reporter assay; assay type: cell-based; conditions: 24 h treatment, wild-type Tcf4 binding sites
Experimental: (§1) FuGENE 6 (E2962, Promega) in a 96-well plate format was used for the transfection of HEK293 cells according to the manufacturer's instructions. HEK293 cells were co-transfected with 45 ng of the TOPFlash or FOPFlash reporter gene, 135 ng of pcDNA3.1-p-catenin and 20 ng of pCMV-RL normalization reporter gene. Cells were cultured in DMEM and 10% fatal bovine serum at 37° C. for 24 h, and different concentrations of inhibitors were then added. After 24 h, the luciferase reporter activity was measured using the Dual-Glo system (E2940, Promega). Normalized luciferase activity in response to the treatment with the inhibitors was compared with that obtained from the cells treated with DMSO. Experiments were performed in triplicate.

[8] = tested on: FOPFlash luciferase reporter in β-catenin activated HEK293 cells; test: FOPFlash luciferase reporter assay; assay type: cell-based; conditions: 24 h treatment, mutant Tcf4 binding sites
Experimental: as §1

[9] = tested on: β-catenin/Tcf PPI; assay type: cell-based; conditions: HCT116 cells, 24 h treatment
[10] = tested on: MDA-MB-231 cells; test: Scratch wound healing assay; assay type: cell-based, human; conditions: 10 μM; 10% serum; mitomycin; 14 h
Experimental: Scratch wound healing assay. To the confluent monolayer of MDA-MB-231 cells in 24-well plates, wounds will be made by scraping a sterile 200 μL pipette tip. Cells were maintained in DMEM containing 10% FBS with 10 μg/mL mitomycin to inhibit cell proliferation. Images of wounds were taken immediately and 14 h after wounding.
(§2) Scratch wound healing and Matrigel invasion assays using TNBC MDA-MB-231 cells were conducted.

[11] = tested on: MDA-MB-231 cells; test: Matrigel invasion assay; assay type: cell-based, human; conditions: 10 μM; 24 h
Experimental: Matrigel invasion assay. MDA-MB-231 cells (5×10^4) suspended in 200 p L starvation medium were added to the upper chamber of a Matrigel coated insert (6.5 mm diameter, […]; Corning 353097), and the insert was placed in a 24-well plate containing […] DMEM medium with 10% FBS. Inhibitors were added to both upper and the lower chambers. Invasion assays were performed for 24 h and cells were fixed with 3.7% formaldehyde. Cells were stained with crystal violet staining solution. The cells on the upper side of the insert were removed with a cotton swab. Five randomly selected fields (×10 objectives) on the lower side of the insert were photographed, and the invaded cells were counted.
as §2

[12] = tested on: Wnt/β-catenin hyperactive cancer cells; test: MTS cell viability assay, summary over cell lines; assay type: cell-based; conditions: result in words
[13] = tested on: β-catenin/APC PPI; test: Co-IP experiment, HCT116 cells, β-catenin/APC; conditions: 24 h, concentrations sufficient to disrupt β-catenin/Tcf PPI
[14] = tested on: β-catenin/E-cadherin PPI; test: Co-IP experiment, HCT116 cells, β-catenin/E-cadherin; conditions: 24 h, concentrations sufficient to disrupt β-catenin/Tcf PPI

Structure (SMILES)	IC50 [1]	IC50 [2]	IC50 [3]	IC50 [4]	IC50 [5]	IC50 [6]	TOPFlash luciferase activity (transactivation of Wnt/β-catenin signaling) [7]	FOPFlash luciferase reporter activity [8]	disruption of the β-catenin/Tcf PPI (co-IP) [9]	migration of TNBC MDA-MB-231 cells (wound healing) [10]	invasion of TNBC MDA-MB-231 cells (Matrigel) [11]	viability of Wnt/β-catenin hyperactive cancer cells [12]	effect on the β-catenin/APC PPI (co-IP) [13]	effect on the β-catenin/E-cadherin PPI (co-IP) [14]
NC(=O)CC[C@H](NC(=O)[C@H](Cc1nn[nH]n1)NC(=O)[C@H](Cc1ccc2ccccc2c1)NC(=O)c1cc2cc(Cl)ccc2[nH]1)C(=O)Nc1ccc(OC(F)(F)F)cc1 [Compound 55, (S)-2-((S)-2-((S)-2-(5-Chloro-1H-indole-2-carboxamido)-3-(naphthalen-2-yl)propanamido)-3-(2H-tetrazol-5-yl)propanamido)-N^1-(4-(trifluoromethoxy)phenyl)pentanediamide]	28.2 ± 4.63 µM	63.9 ± 7.48 µM	34.3 ± 6.42 µM	29.2 ± 4.02 µM	38.4 ± 3.99 µM	60.3 ± 10.5 µM	inhibited	did not inhibit						
CCOC(=O)CC[C@H](NC(=O)[C@H](Cc1nn[nH]n1)NC(=O)[C@H](Cc1ccc2ccccc2c1)NC(=O)c1cc2cc(Cl)ccc2[nH]1)C(=O)Nc1ccc(OC(F)(F)F)cc1 [Compound 56, Ethyl (S)-4-((S)-2-((S)-2-(5-chloro-1H-indole-2-carboxamido)-3-(naphthalen-2-yl)propanamido)-3-(2H-tetrazol-5-yl)propanamido)-5-oxo-5-((4-(trifluoromethoxy)phenyl)amino)pentanoate]	14.1 ± 2.86 µM	69.4 ± 7.21 µM	12.3 ± 2.16 µM	7.25 ± 0.72 µM	16.5 ± 2.23 µM	86.4 ± 8.58 µM	suppressed transactivation of Wnt/β-catenin signaling in dose-dependent manners; also recorded: inhibited	did not inhibit	disrupted the β-catenin/Tcf PPI; also recorded: dose-dependently inhibited	selectively inhibited; also recorded: inhibited the migration; also recorded: effectively inhibit	selectively inhibited; also recorded: inhibited invasion; also recorded: effectively inhibit	selectively inhibited	without affecting; also recorded: had no effect	without affecting; also recorded: had no effect
